According to patent US20130095512A1, “DEVICE FOR SORTING, CLASSIFYING, AND ASSAYING PARTITION BEHAVIOR OF CELL MEMBRANE BIOMOLECULES AND METHODS BASED THEREON” (Cornell University, priority 2010, published 2013):

How the values were obtained:
Assay type in all cases: physicochemical
[1] = Stamped patterned bilayers, electric field-induced migration and partitioning into raft regions; conditions: stamped raft regions in fluid phase bilayer, FIG. 3
Source text: In one embodiment, the separation bilayer is patterned with multiple phases (raft and non-raft) that interact with species differentially to effect a separation analogous to a chromatographic separation strategy (FIG. 3). Here differently partitioning behavior serves to change the mobility of one species relative to the other such that they become separated. FIG. 3 illustrates how patterned bilayers of a BPD can be made and used for separation purposes. In one embodiment of the method for making a BPD, the steps can comprise: (A) Forming a bilayer via vesicle fusion of one composition, then (B) selectively remove by stamping regions where the second phase is desired. Back filling with the second vesicles (B). Stamping out a thin section of bilayer where a third vesicle formulation fuses; these vesicles contain the species to be separated (denoted by the mixture of light and dark circles arranged in a thin rectangle). An electric field can then be applied to induce the mixed charged species to migrate through the bilayer and partition as they sample the different regions of the bilayer. […] The GM1 is labeled with Alexa-594, which makes it, and the rafts in which they are located, appear bright.

[2] = Lipid diffusion measurements by fluorescence recovery after photobleaching (FRAP) in supported lipid bilayers
Protocol: Lipid Diffusion Measurements. Diffusion coefficients of all biomolecule targets in each phase were determined by fluorescence recovery after photobleaching (FRAP). To measure the diffusion coefficient and mobile fraction of the biomolecule in a supported bilayer, liposomes of the same composition used in experiments were prepared with 0.1% of either BODIPY DHPE or GM1. 0.5 mg/ml liposomes were incubated in a PDMS well attached to a piranha cleaned slide. Lipid vesicles were allowed to incubate for 5 minutes, before being rinsed with buffer for one minute. In the case of the POPC-rich phase bilayer, the entire process is at room temperature. In the case of the raft phase bilayer, the prepared vesicle solutions were heated to 65° C. (a temperature above the miscibility transition temperature of the lipid mixture). The warm vesicle solutions were added to wells heated to 65° C. and were later rinsed with the buffer at 65° C. Following the formation of the raft phase bilayer, the heated sample was gently cooled down to room temperature prior measuring the diffusion coefficient.
To aid in focusing on the plane of the bilayer on the microscope, the bilayer was scratched with a dissection tool to remove a thin line of bilayer. Following the scratching step, the bilayer was rinsed again for one minute with buffer to remove any lipids in the bulk that were removed by scratching. A 20 μm diameter spot in the supported lipid bilayer was bleached with a laser for 200 ms. The recovery of the photobleached spot was recorded for 10 minutes for the POPC-rich phase sample and one hour for the raft phase sample. The fluorescence intensity of the bleached spot was determined after background subtraction and normalization for each image. The recovery data was fit using the method of Soumpasis (Zheng Y Z, Foster L J. Biochemical and Proteomic Approaches for the Study of Membrane Microdomains. Proteomics. 2009; 72:12-22). The diffusion coefficient, D, was then calculated using the following equation: D=w^2/4t1/2, where w is the full width at half-maximum of the Gaussian profile of the focused beam. The average diffusion coefficient and mobile fractions were determined from three separate samples of each sample and are listed in Table 2. These values are in line with numerous reports of lipid diffusion in supported bilayers.

[3] = Partitioning kinetics of membrane biomolecules in patterned two-phase coexistent supported lipid bilayers in a microfluidic channel (BPD); conditions: for K (eq) partition coefficient: concentration in raft phase over POPC-rich phase from fluorescence intensity after equilibrating 2 hrs; for partitioning between raft phase and POPC-rich phase at equilibrium: flow stopped, equilibrated for 2 hrs; for k+ (association rate constant): from POPC-rich phase (70/20/10 POPC/PSM/Chol) to raft phase, first order, initial slope of NR-α plot; for k− (dissociation rate constant): from raft phase to POPC-rich phase, reversed flow after 2 hrs equilibration; for K (=k+/k−) partition coefficient: ratio of association/dissociation kinetic parameters
Source text: Preparation of patterned two-phase coexistent lipid bilayers in a microfluidic device. Supported lipid bilayers (SLBs) are commonly formed by the rupture and self-assembly of large unilamellar lipid vesicles in solution onto glass (Brian, A. A.; McConnell, H. M. Proc. Natl. Acad. Sci. USA 1984, 81, 6159; Johnson, J. M.; Ha, T.; Chu, S.; Boxer, S. G. Biophysical Journal 2002, 83, 3371) or other oxidized supports (Richter, R. P.; Borat, R.; Brisson, A. R. Langmuir 2006, 22, 3497), as illustrated in FIG. 17a. A bilayer is formed during laminar flow conditions instead of under stagnant incubation. Laminar flow is an advantage for patterning heterogeneous bilayers in microfluidic channels because reagents follow streamlines with minimal mixing (Kam, L.; Boxer, S. G. Journal of the American Chemical Society 2000, 122, 12901). Thus, lipid vesicles of different compositions can be sent through the channel on different streamlines and upon rupture will form contiguous, parallel bilayers of different compositions with stable interfaces, if the compositions are chosen so that they are phase stable.
Formation of contiguous patterned membrane and loading and transport of membrane-bound biomolecules. […] A contiguous lipid membrane is formed with POPC-rich phase (70/20/10 molar ratio of POPC/PSM/Chol), raft phase (60/40 molar ratio of PSM/Chol), and the membrane loaded with 1 mol % of Alexa-594 head-labeled GM1 and 1 mol % of head-labeled BODIPY-DHPE doped in the POPC-rich phase.
Partitioning kinetic measurements by monitoring species' concentrations in the raft phase with time. […] The partitioning assay was carried out in three stages: association stage, equilibrium stage, and dissociation stage (FIGS. 13a-c). The experimental procedure and analyses are somewhat analogous to the measurement of adsorption/desorption binding kinetics by surface plasmon resonance (SPR) (Wegner, G. J.; Wark, A. W.; Lee, H. J.; Codner, E.; Saeki, T.; Fang, S.; Corn, R. M. Analytical Chemistry 2004, 76, 5677), except here there is a 2-D planar geometry and observing association/dissociation kinetics of membrane-bound biomolecules to/from a lipid membrane phase along an interface. To obtain association kinetics from POPC-rich phase to raft phase, target species in the POPC-rich phase were brought to a pristine raft phase and the amount entering into the raft phase in the control volume was monitored with time (FIG. 13a, stage 1). After most of the species initially loaded in the channel entered into the main partitioning channel, the next step was to stop the convective flow and wait until the system equilibrated (FIG. 13a, stage 2). Equilibration was confirmed when the concentration profile no longer changed across the channel. Finally, to obtain dissociation kinetics, the net amount of species leaving the raft phase was monitored when the hydrodynamic flow was reversed and fresh POPC-rich phase membrane could be monitored for the re-association of molecules now moving from the raft phase back into the POPC-rich phase (FIG. 13a, stage 3). Three different molecules were tested: Alex594-head-labeled GM1, BODIPY-tail-labeled GM1, and head-labeled BODIPY-DHPE.
Theory of partitioning kinetic analyses. The association/dissociation kinetics of fluorescently-labeled species was analyzed into/from the raft phase using a mass-balance approach. A control volume used for the mass balance is illustrated in FIG. 14. The accumulation of species in the raft phase over time can be represented as:
Association kinetic analysis. To obtain the association kinetic information from the POPC-rich phase to the raft phase, the experiment was operated in such a way so that only the association term, r+, is important and the dissociation term and the convective flow rate terms can be neglected in Equation 1. At the beginning of the experiment, a hydrodynamic force was provided to move the species into the control volume (the white box in FIG. 14). […]

[4] = Partitioning in the BPD on CTB binding; conditions: CTB binds to GM1
Source text: βCD-mediated efflux is used to disrupt raft microdomains and stimulate a change in GM1 partitioning. Changes in partitioning of both GM1 and PLAP can also be induced by binding to CTB and/or antibodies (Kahya N, Brown D A, Schwille P. Raft Partitioning and Dynamic Behavior of Human Placental Alkaline Phosphatase in Giant Unilamellar Vesicles. Biochemistry. 2005; 44:7479-89). Antibody binding is known to cause several-fold enrichment in the raft phase of both targets and detection will be straightforward using fluorescence labels or conjugates.

[5] = POPC-rich phase (70/20/10 POPC/PSM/Chol)

Compound	partitioning into raft regions [1]	Diffusion coefficient ([2]; POPC-rich phase) [μm^2/sec]	Diffusion coefficient [2, 5] [μm^2/s]	Diffusion coefficient ([2]; Raft phase (60/40 PSM/Chol)) [μm^2/s]	rate for a molecule to diffuse to the interface ([2]; diffusion coefficient/distance, 1 μm away in the POPC-rich phase, rough estimate) [μm/sec]	Diffusion coefficient ([2]; raft phase) [μm^2/sec]	diffusion rate from the interface into the middle of the raft patch ([2]; ~100 nm, raft phase, estimate) [μm/sec]	K (eq) partition coefficient [3]	partitioning between raft phase and POPC-rich phase at equilibrium [3]	k+ (association rate constant) [3] [μm/min]	rate of the molecule to pass across the interface ([3]; from Table 1) [µm/s]	k− (dissociation rate constant) [3] [μm/min]	K (=k+/k−) partition coefficient [3]	enrichment in the raft phase on CTB binding [4]
bovine brain asialoganglioside-GM1 labeled with Alexa Fluor® 594 hydrazide [Head-labeled GM1]	preferential partitioning of GM1 lipids into raft regions	0.77	0.77	0.06	0.77	0.06	0.6	1.96	Most of GM1 partitions to the raft phase	1.53 ± 0.03	~0.025	0.85 ± 0.03	1.8	enrichment was observed
BODIPY®FL C5-ganglioside GM1 [Tail-labeled GM1]			0.82	0.08				0.75		0.64 ± 0.07		0.72 ± 0.05	0.89	
CCCCCCCCCCCCCCCC(=O)OC[C@H](COP(=O)(O)OCCNC(=O)CCc1ccc2n1[B-](F)(F)[N+]1=C(C)C=C(C)C1=C2)OC(=O)CCCCCCCCCCCCCCC.CCN(CC)CC [Head-labeled BODIPY-DHPE, N-(4,4-difluoro-5,7-dimethyl-4-bora-3a,4a-diaza-s-indacene-3-propionyl)-1,2-dihexadecanoyl-sn-glycero-3-phosphoethanolamine, triethylammonium salt]	exclusion of BODIPY DHPE lipids from rafts regions		0.63	0.05				0.6	most of BODIPY-DHPE remains in the POPC-rich phase	0.57 ± 0.08		0.98 ± 0.04	0.58	
